From PMC6689897, “Drugging an undruggable pocket on KRAS” (Proceedings of the National Academy of Sciences of the …, 2019)

System: NCI-H358 cells
Experiment: Soft agar proliferation assay in low serum
Format: cell-based
Conditions: Homo sapiens, soft agar and low serum conditions, read-out: EC50 antiproliferative effect
Experimental: 263 (ATCC® CCL-224™; grown in RPMI 10% FCS) and SK-MEL-28 (ATCC® HTB-
264 72™, grown in EMEM 10% FCS). Cell cultures were incubated at 37 °C and 5% CO2 in
265 a humidified atmosphere, with medium change or subcultivation 2-3 times a week.
269 Cells were lysed in 1x lysis buffer (Cell Signaling #9803) and protein concentration
270 normalized to 10µg/µL. Proteins were separated by SDS-Page and transferred to
271 Nitrocellulose membranes (BioRad) according to standard protocols. Membranes were
273 (Milipore #06-182) and Tubulin (Cell Signaling #2144) in 5% BSA in TBST blocking
274 buffer. After primary antibody incubation membranes were incubated with anti-rabbit
275 IgG secondary antibody (Dako #P0448) and detected with ECL (GE Healthcare Life
278 Compound treatment of cells
279 Synthesized or purchased (ARS 1620) compounds were dissolved in 100% DMSO and
280 stored at a concentration of 10mM at -20°C. Compounds were either serially diluted in […]
Quantification of living cells […]
291 manufacturer’s recommendation. Luminescence was read in a 2030 VICTOR X5 (Perkin […]
305 were trypsinized, counted and plated in 60 µL culture medium containing 2% FCS […]
313 added according to manufacturer’s instructions. Fluorescence intensity was determined
314 using a fluorescence reader (2030 VICTOR X5, Perkin Elmer). […]
319 MAPK pathway signaling (pERK, pAKT quantification) […]

Cn1cnc(Cn2ccc3ccc(CNCc4[nH]c5ccccc5c4[C@H]4NC(=O)c5ccc(O)cc54)cc32)c1 [Compound 1]
EC50: 6.7 µM
